Assay results: publication PMC4621900, “Ebselen inhibits QSOX1 enzymatic activity and suppresses invasion of pancreatic and renal cancer cell lines” (Oncotarget, 2015)

Legend:
[1] = molecular target: glucose oxidase (GOx) (Aspergillus niger, UniProt P13006); assay: luminescent (ROS-Glo) H2O2-detection enzyme assay, counter-screen; format: biochemical
[2] = molecular target: T1, Quiescin sulfhydryl oxidase 1 (QSOX1) (Homo sapiens, UniProt O00391); assay: intact-protein LC-ESI-MS of covalent adducts and maleimide protection assay; IC50 from purified-enzyme luminescent H2O2 assay, confirmed by HVA fluorescence assay; format: biochemical
T1 construct: amino acids 33–546 of QSOX1-S, N-terminal poly-histidine tag (rQSOX1)
T1 sequence (O00391 33-546): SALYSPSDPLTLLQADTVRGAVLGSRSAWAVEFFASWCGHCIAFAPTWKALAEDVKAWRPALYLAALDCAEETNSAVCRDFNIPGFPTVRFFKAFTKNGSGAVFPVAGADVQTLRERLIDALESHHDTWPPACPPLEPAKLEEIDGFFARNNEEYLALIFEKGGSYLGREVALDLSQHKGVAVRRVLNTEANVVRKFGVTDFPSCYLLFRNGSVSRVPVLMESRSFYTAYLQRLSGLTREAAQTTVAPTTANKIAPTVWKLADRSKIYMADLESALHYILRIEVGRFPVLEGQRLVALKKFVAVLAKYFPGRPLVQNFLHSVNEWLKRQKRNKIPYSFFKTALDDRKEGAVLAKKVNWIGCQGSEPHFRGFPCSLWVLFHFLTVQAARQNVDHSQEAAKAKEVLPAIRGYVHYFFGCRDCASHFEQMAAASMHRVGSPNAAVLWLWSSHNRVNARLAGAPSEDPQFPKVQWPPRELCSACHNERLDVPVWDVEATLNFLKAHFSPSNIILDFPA

Sequence of glucose oxidase (GOx) (P13006 17-605): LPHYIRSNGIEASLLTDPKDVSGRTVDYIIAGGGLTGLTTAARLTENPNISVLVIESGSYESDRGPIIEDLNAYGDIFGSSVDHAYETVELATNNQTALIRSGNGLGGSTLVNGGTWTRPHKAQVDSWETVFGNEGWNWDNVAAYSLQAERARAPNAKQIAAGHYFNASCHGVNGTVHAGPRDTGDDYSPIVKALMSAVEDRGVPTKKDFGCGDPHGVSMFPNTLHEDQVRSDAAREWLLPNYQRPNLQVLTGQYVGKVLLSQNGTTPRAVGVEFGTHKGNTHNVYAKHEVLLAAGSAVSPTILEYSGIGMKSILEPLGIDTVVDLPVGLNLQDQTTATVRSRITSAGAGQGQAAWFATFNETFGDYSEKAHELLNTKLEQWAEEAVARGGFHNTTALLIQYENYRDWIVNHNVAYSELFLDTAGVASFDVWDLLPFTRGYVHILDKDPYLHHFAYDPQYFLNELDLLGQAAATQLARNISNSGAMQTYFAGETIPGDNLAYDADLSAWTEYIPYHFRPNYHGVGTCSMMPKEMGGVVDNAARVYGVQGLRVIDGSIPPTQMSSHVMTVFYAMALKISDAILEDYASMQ

O=c1c2ccccc2[se]n1-c1ccccc1 [ebselen, 2-phenyl-1,2-benzisoselenazol-3(2H)-one]
IC50 [1]: 20.5 µM | IC50 [2]: 5.4 µM
